Laboratory results reported in patent publication US20080044358A1, “METHODS FOR LYMPH SYSTEM IMAGING” (priority 2006, published 2008).
Read-outs that look alike come from different tables or passages of the source.

Tests used:
[1] = test system: VX2 tumor bearing rabbits, metastatic iliacal lymph nodes; test: MR imaging of lymph node metastases in VX2 tumor rabbit model after intravenous injection; assay type: in vivo, New Zealand White rabbits; settings: for delineation / differentiation of functional and metastatic lymph node tissue: i.v., MS-325 0.05 mmol Gd/kg, Gd-DTPA 0.2 mmol Gd/kg, intraindividual comparison
Experimental: New Zealand White rabbits (3-4 kg, n=6) were inoculated intramuscularly into the thigh with 2 to 3 pieces (1×1 mm) of VX2 carcinoma cells to produce metastases in […] nodes. The imaging experiments were performed 3 to 6 weeks after the injection of tumor cells. […] Contrast agents: […] Imaging: Intraindividual comparison of lymphographic effects in […] nodes. day 1: Gd-DTPA (5 to 120 minutes p.i.). day 2: […] Assessment of technical success and quality of MR imaging, and detection of lymph node metastases. Histology: Microscopic examination after H/E staining; correlation with MR findings.

[2] = test system: guinea pigs with stimulated (enlarged) popliteal lymph nodes; settings: for ratio of signal intensity lymph node to muscle / % signal enhancement popliteal lymph node: 0.05 mmol/kg i.v. bolus; for % signal enhancement popliteal lymph node: T1-weighted MR 1.5 T
Experimental: Female guinea pigs (370-450 g, n=3) had their lymph nodes stimulated by egg yolk emulsion (0.1 mL) intramuscularly in the thigh and lower legs on six days. MS-325 (0.05 mmol/kg) was administered as an i.v. bolus
MR system: Head scanner (Allegra, 1.5 Tesla; Siemens AG, Erlangen, Germany), T1-weighted sequence (T1-TSE, TR/TE 666/12 ms, slice thickness 1.1 mm, acquisition time 3:49).
Imaging and analysis: The animals were imaged prior to contrast agent administration and 1, 15, 30, 60, 90, 120, and […] post injection. The percent signal intensity enhancement was calculated in the popliteal lymph nodes and in surrounding muscle. The ratio of signal intensity between the lymph node and the surrounding muscle was also determined.

[3] = 5 to 15 min after intravenous injection, 0.05 mmol Gd/kg body weight
[4] = 0 min post injection (prior to contrast agent)

**Q.** Which “enhancement in the whole lymph node” value ([1]; after intravenous injection, 0.2 mmol Gd/kg, T1-weighted MR) does the source give for `O=C([O-])CN(CCN(CC(=O)[O-])CC(=O)O)CCN(CC(=O)[O-])CC(=O)O.[Gd+3]` [Gd-DTPA, reference compound] here?
**A.** Its value is “only a slight and inhomogeneous enhancement”.

**Q.** And the “delineation / differentiation of functional and metastatic lymph node tissue” value [1]?
**A.** Its value is “does not allow an effective differentiation”.

**Q.** With `O=C([O-])CN(CCN(CC(=O)[O-])C[C@H](COP(=O)([O-])OC1CCC(c2ccccc2)(c2ccccc2)CC1)N(CC(=O)[O-])CC(=O)[O-])CC(=O)[O-].[Gd+3].[H+].[H+].[H+]` [MS-325] as the compound, how does the “appearance of the metastases (FIGS. 1 and 2, coronal MR images)” value [1, 3] read?
**A.** Its value is “remains dark”.

**Q.** What about the “enhancement in the functional lymph node tissue (FIGS. 1 and 2, coronal MR images)” value [1, 3] of the same compound?
**A.** Its value is “bright and homogeneous enhancement”.

**Q.** What about the “enhancement of the metastatic tissue” value ([1]; after intravenous injection, 0.05 mmol Gd/kg, T1-weighted MR) of the same compound?
**A.** The value was “only a slight enhancement”.

**Q.** What about the “signal increase in the functional lymph node tissue” value ([1]; between 5 and 30 min after intravenous injection, 0.05 mmol Gd/kg, T1-weighted MR) of the same compound?
**A.** The value was “rapid and strong signal increase”.

**Q.** What about the “delineation / differentiation of functional and metastatic lymph node tissue” value [1] of the same compound?
**A.** Its value is “excellent delineation of the lymph node metastases”.

**Q.** What about the “ratio of signal intensity lymph node to muscle” value (“ratio” below) [2, 4] of the same compound?
**A.** Its value is 1.2 ± 0.1.

**Q.** And the “% signal enhancement popliteal lymph node” value [2, 4]?
**A.** Its value is 0 ± 0%.

**Q.** And the “ratio” value ([2]; 1 min post injection)?
**A.** The value was 1.6 ± 0.1.

**Q.** And the “% signal enhancement popliteal lymph node” value ([2]; 1 min post injection)?
**A.** Its value is 87 ± 11%.

**Q.** What about the “ratio” value ([2]; 15 min post injection) of the same compound?
**A.** The value was 1.4 ± 0.1.

**Q.** And the “% signal enhancement popliteal lymph node” value ([2]; 15 min post injection)?
**A.** Its value is 67 ± 11%.

**Q.** And the “ratio” value ([2]; 30 min post injection)?
**A.** Its value is 1.4 ± 0.1.

**Q.** And the “% signal enhancement popliteal lymph node” value ([2]; 30 min post injection)?
**A.** Its value is 57 ± 6%.

**Q.** And the “ratio” value ([2]; 60 min post injection)?
**A.** The value was 1.3 ± 0.1.

**Q.** What about the “% signal enhancement popliteal lymph node” value ([2]; 60 min post injection) of the same compound?
**A.** Its value is 45 ± 6%.

**Q.** What about the “ratio” value ([2]; 90 min post injection) of the same compound?
**A.** Its value is 1.3 ± 0.1.

**Q.** What about the “% signal enhancement popliteal lymph node” value ([2]; 90 min post injection) of the same compound?
**A.** The value was 37 ± 4%.

**Q.** What about the “ratio” value ([2]; 120 min post injection) of the same compound?
**A.** Its value is 1.3 ± 0.1.

**Q.** And the “% signal enhancement popliteal lymph node” value ([2]; 120 min post injection)?
**A.** The value was 31 ± 6%.

**Q.** And the “ratio” value ([2]; 2440 min post injection)?
**A.** The value was 1.1 ± 0.2.

**Q.** What about the “% signal enhancement popliteal lymph node” value ([2]; 2440 min post injection) of the same compound?
**A.** Its value is −8 ± 14%.

**Q.** What about the “signal and contrast after 24 hours” value ([2]; after 24 hours, 0.05 mmol/kg) of the same compound?
**A.** The value was “returned to baseline levels”.

**Q.** What about the “contrast between the lymph node and the surrounding muscle” value ([2]; after injection, 0.05 mmol/kg) of the same compound?
**A.** The value was “increased”.

**Q.** What about the “enhancement of stimulated (enlarged) lymph nodes” value ([2]; after injection, 0.05 mmol/kg) of the same compound?
**A.** Its value is “positive and persistent enhancement”.
